Data set [1] relates to male Sprague Dawley rats. The conditions noted are these: 72-hour bladder perfusion. How it is done: (§1) Blood, urine, and tissue samples were collected and analyzed for drug content.
(§2) The perfusate formulation concentration was 0.308 mg/mL. Dose (mg/kg) was calculated as (Dose administered (g) x formulation concentration (mg/mL))/Animal Wt. (kg). The drug solutions were dosed over a 72-hour period into the non-fasted animal's bladder by intra-urinary bladder cannula using an infusion pump.
(§3) Whole blood samples were taken via tailnick or jugular vein cannula at the following time points following the start of perfusion: 0, 4, 8, 24, and 48 hours. Urine was collected pre-dose and for 0-24, 24-48, and 48-72-hour periods post dose.
(§4) Following the 72-hour infusion period the animals were sacrificed, terminal blood samples were taken via the abdominal aorta, and bladder, prostate, ureter, and kidney tissues were collected, weighed, and visually inspected for evidence of tolerability/reaction from exposure to the drug.

Data set [2] can be described thus: Oxaliplatin tissue permeability: platinum in blood, urine and tissues after 72-hour bladder perfusion (Example 2). The protocol:
as §1, §2, §3, §4

Data set [3] concerns male Sprague Dawley rats. The data set is described as follows: Bladder tolerability in rats: clinical observations during perfusion and tissue observations at necropsy (Example 1). Type of data set: in vivo, rat. How it is done: For each drug, each test group included three male rats. The perfusate drug concentration was set to 0.3 mg/mL and the perfusion rate used was 300 μL/hour over the test periods.
Perfusion solutions were prepared by dissolving each drug substance into an appropriate volume of saline. The finals doses administered are summarized below.

Data set [4] is described as follows: Platinum content of blood, urine and terminal tissues by ICP-MS after bladder perfusion or IV bolus (Example 1). Type of data set: in vivo, rat.
The mark [5] stands for this setting: 0.308 mg/mL, individual animals 47, 48, 49.
The mark [6] stands for this setting: Group 1: 24-hr bladder perfusion, 0.3 mg/mL.
The mark [7] stands for this setting: Group 2: 72-hr bladder perfusion, 0.3 mg/mL.
[8] abbreviates: Group 4: IV bolus with saline perfusion via cannula.

Each structure is given as a SMILES string. Where “and” joins values, the source holds several entries; their conditions need not be identical. Equal values may be shown once. Entries after “also recorded” stand apart in the source; their conditions may differ. Read-outs that look alike come from different tables or passages of the source.

Turning to `O=C1[O][Pt]2([NH][C@@H]3CCCC[C@H]3[NH]2)[O]C1=O` [oxaliplatin], the “Appearance of animals throughout the study” value in the data set on male Sprague Dawley rats [1] (0.308 mg/mL) is “All animals appeared normal”. Also, the “Observations at necropsy: erythemia (animal 48: erythemia and edema) on inside wall of bladder associated with the bladder cannula” value in the data set with male Sprague Dawley rats [1] (0.308 mg/mL, individual animals 47, 48) was “bladder associated with the bladder cannula mild; also recorded: bladder associated with the bladder cannula moderate”. Besides, in the data set on male Sprague Dawley rats [1] (setting [5]), the “Observations at necropsy: erythemia of bladder surface (grade)” value is listed as “Slight erythemia; also recorded: Slight erythemic”; the “Observations at necropsy: erythemia, share of surface” value is 20 % of surface (2×) and < 5 % of surface. Besides, the “Bladder tolerability and tissue permeability criteria (overall)” value with male Sprague Dawley rats [1] (Example 2) was “both bladder tolerability and tissue permeability”. The “Blood and kidney platinum concentrations, in contrast to cisplatin” value in data set [2] (72-hour bladder perfusion) was “Comparatively low”. Further, the “Bladder platinum concentrations compared to cisplatin and carboplatin” value in data set [2] (72-hour bladder perfusion, FIGS. 12A-12B) is “significant platinum bladder concentrations”. Also, the “Platinum concentration in the kidney or prostate” value in data set [2] (72-hour bladder perfusion, terminal tissues) is “No appreciable platinum concentration”. Besides, the “Blood concentrations (blood profile) compared with cisplatin and carboplatin” value in data set [2] (72 hour bladder perfusion, FIG. 10) is “fell between cisplatin and carboplatin”.

Take `N.N.O=C([O-])C1(C(=O)[O-])CCC1.[Pt+2]` [carboplatin]: the “Tissue Observations at Necropsy: bladder lumen erythemic discoloration (grade)” value is “Bladder lumen: slight to mild” with male Sprague Dawley rats [3] (setting [6]), “Bladder lumen: slight to mild” in the data set with male Sprague Dawley rats [3] (setting [7]) and “Bladder lumen: slight generalized” in the data set on male Sprague Dawley rats [3] (setting [8]). The “Tissue Observations at Necropsy: erythemic discoloration, share of lumen” value in the data set with male Sprague Dawley rats [3] (setting [6]) is on record as 10-30 % of lumen; in the data set with male Sprague Dawley rats [3] (setting [7]) it was 10-30 % of lumen; in the data set on male Sprague Dawley rats [3] (setting [8]) it was “erythemic discoloration, 5-10% of lumen”. Moreover, the “Tissue Observations at Necropsy: evidence of tissue edema/thickened bladder walls” value with male Sprague Dawley rats [3] (setting [6]) and in the data set with male Sprague Dawley rats [3] (setting [7]) was “no” each time. For the same compound, the “Clinical Observations of note during Perfusion” value in the data set on male Sprague Dawley rats [3] (Group 1: 24-hr perfusion via cannula to bladder dome, 0.3 mg/mL, 300 μL/hour, 3 male rats) is on record as “Normal”; in the data set with male Sprague Dawley rats [3] (Group 2: 72-hr perfusion via cannula to bladder dome, 0.3 mg/mL, 300 μL/hour, 3 male rats), “Normal”; in the data set on male Sprague Dawley rats [3] (Group 4: IV bolus with saline perfusion via cannula, 3 male rats), “Red tinted urine”. Also, in the data set with male Sprague Dawley rats [3] (all dosed animals (Groups 1, 2, 4)), the “Appearance of animals during perfusion period” value was “all animals appeared normal”. Further, the “Bladder tolerability and tissue permeability criteria (overall)” value with male Sprague Dawley rats [3] (bladder perfusion, Example 1) was “meet only one or other of these criteria”. The “Blood profile (platinum)” value in data set [4] (IV bolus, FIG. 8) is reported as “significant peak systemic platinum exposure followed by a sharp decay”. Further, the “Amount in the IV bolus terminal phase as compared with cisplatin” value in data set [4] (IV bolus, blood) is on record as “one quarter less”. For the same compound, in data set [4] (bladder perfusion 0.3 mg/mL), the “Therapeutic tissue platinum concentrations by intravesical perfusion” value is on record as “does not achieve therapeutic tissue platinum concentrations”. Moreover, in data set [4] (bladder perfusion groups, FIG. 8), the “Observed plasma levels (blood profile, platinum)” value is recorded as “near the limit of the assay detection (twice the limits of detection) to below the quantitation limit”. Also, the “Tissue levels (terminal platinum concentrations) compared with cisplatin” value in data set [4] (bladder perfusion, FIG. 9) is listed as “consistently less than those observed following cisplatin bladder perfusion”. In addition, in data set [4] (bladder perfusion, terminal bladder tissue), the “Bladder tissue concentrations relative to IC50” value is reported as “below the IC50 of carboplatin”.

With `N.N.[Cl][Pt][Cl]` [cisplatin], in the data set with male Sprague Dawley rats [3] (rat, in vivo, iv), the “Clinical Observations of note during Perfusion” value is given as “Normal” and the “Tissue Observations at Necropsy (overall)” value is reported as “No observations”. Further, in data set [4] (rat, in vivo), the “Bladder platinum concentrations, 72 hr perfusions compared to 24 hr perfusions” value was “Significantly higher and more variable”; the “Blood profile (platinum, whole blood)” value was “rising blood levels”.

Source of the values: patent US11007355B2 (TARIS Biomedical LLC, priority 2012, dated 2021).
